Experimental data: patent US5073571A, “Method of inhibiting virus” (priority 1989, dated 1991)

Tested on: MoMLV
Assay: MoMLV replication: LZ1 virus titer by histochemical staining of NIH 3T3 cells for β-galactosidase
Assay type: cell-based, Maloney murine leukemia virus
Conditions: up to 100 μM, 2 day treatment of LZ1 cells
Source text: Panel A -Schematic representation of the MoMLV assay system. […] This cell produces infectious, replication defective virus (designated (LZ1) which carries the LacZ gene. When NIH3T3 cells are exposed to supernatant taken from the LZ1 virus producing cells, they are initially infected and their progeny are detectable by histochemical staining for β-galactosidase. Thus, the titer of the virus produced by the LZ1 cells after treatment with the various agents, can be readily determined by counting the number of blue NIH3T3 cells. Replication competent MoMLV is not detected using this assay system since the lacZ gene product is not present. Panel B - The effect of 6-oxamyristic acid and 13-oxamyristic acid on LZ1 virus production. The results represent the mean (+1 standard deviation) of three independent tests each done in duplicate. Panel C - Number of viable LZ1 producing cells at the end of a 2 day treatment with analog as measured by trypan blue exclusion. The results of duplicate assays were averaged. Panel D - The effects of analog treatment on incorporation of [^3 H]leucine. Cells in duplicate wells were pulse labeled for 4 h following three days of incubation with analog or ethanol (0.1%). Duplicate assays were performed. The results were averaged and expressed as a percentage of the results obtained from untreated cells.
Assay of the Effects of Analogs on the Replication of Maloney Murine Leukemia Virus. The LZ1 titer assay was developed for rapid histochemical quantitation of infectious virus production. In brief, the LZ1 virus-producing cell line was derived by Sanes et al., EMBO J. 5, 3133-3142 (1986), from the .PSI.-2 cell line. .PSI.-2-cells are NIH 3T3 cells that contain a stably integrated packaging mutant (pMOV-.PSI.-) of MoMLV. This mutant has a deletion of 350 nucleotides between the 5' donor splice site for env and the initiator methionine codon for Pr65^gag [Mann et al., Cell 33, 153-159 (1983)]. The LZ1 cell line is a subclone of .PSI.-2 cells that were co-transfectd with pM-MuLV-SV-LacZ [Sanes et al., supra.]and pSVTK neoB and then selected for G418 (Geneticin®) antibiotic resistance and production of defective MoMLV containing the E. coli β-galactosidase gene [Sanes et al., supra.]. The recombinant virus produced by LZ1 cells is capable of primary infection of NIH 3T3 cells but is replication defective [Sanes et al., surpa.]. Infected NIH 3T3 containing the lac-Z gene can be identified by histochemical staining for β-galactosidase activity.
To assess the effects of analog treatment on MoMLV replication, 1 × 10^5 LZ1 producing cells were added to each well of a 24-well tissue culture plate in 1 mL of Dulbecco's Modified Eagle's medium (DME) containing calf serum (final concentration =10%), penicillin (100 IU/mL), streptomycin (100 μg/mL) with or without analog (10-100 μM). After 24 h, the media was removed and fresh serum-containing media ±analog was added. The next day (48 hours after plating), the virus containing supernatant was removed and passed through a 0.2 μm filter. Various size aliquots (25-100 μL of the 1 mL filtrate) were added to 1 × 10^4 NIH 3T3 cells contained in 1 mL of DME/10% calf serum/penicillin/streptomycin. These indicator cells had been plated 24 h earlier in 24 well tissue culture plates. Polybrene (Sigma) was added at the same time as the filtrate so that its final concentration was 10 μg/mL. […]

COCCCCCCCCCCCC(=O)O [13-oxamyristate, 12-(Methoxy)dodecanoic acid]
effect on MoMLV replication: no effect on virus replication
